This passage reports Activity and EC50 results from ChEMBL document CHEMBL5325492, “PROTACs Targeting MLKL Protect Cells from Necroptosis” (J Med Chem, 2023).

Molecules are shown by their SMILES. Calls of active or inactive are those of the source. The rule behind the calls is not given here.

In data set [1] the target is T1, Protein cereblon/Mixed lineage kinase domain-like protein (Homo sapiens, UniProt Q8NB16+Q96SW2). The experiment in a line: PROTAC activity at CRBN/MLKL in TSZ-induced human HT29 cells assessed as suppression of phosphorylated protein in cell lysates at 10 uM incubated for 4 hrs measured by capillary immunoassay. It is filed as subcellular. As to conditions: HT-29.
Target sequence in this assay (Q96SW2 whole entry, looked up, one chain of several, the tested form may be a part): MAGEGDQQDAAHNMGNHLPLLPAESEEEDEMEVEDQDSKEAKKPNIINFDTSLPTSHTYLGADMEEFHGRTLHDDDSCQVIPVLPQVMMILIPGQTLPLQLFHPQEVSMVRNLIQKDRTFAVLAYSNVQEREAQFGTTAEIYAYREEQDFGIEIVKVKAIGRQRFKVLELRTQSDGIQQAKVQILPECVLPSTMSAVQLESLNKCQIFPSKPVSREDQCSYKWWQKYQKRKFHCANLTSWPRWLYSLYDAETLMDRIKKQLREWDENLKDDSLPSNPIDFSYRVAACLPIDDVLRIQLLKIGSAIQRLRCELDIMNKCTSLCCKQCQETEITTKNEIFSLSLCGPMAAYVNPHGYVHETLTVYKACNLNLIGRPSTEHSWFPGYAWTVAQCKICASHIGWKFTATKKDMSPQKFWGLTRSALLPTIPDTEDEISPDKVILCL

The subject of data set [2] is HT-29. Put plainly: Protection against TSZ-induced necroptosis in human HT-29 cells assessed as cell viability incubated for 24 hrs by CellTiter Glo assay. The following applies: HT-29, 24 h.
The target in data set [3] is T1, Protein cereblon/Mixed lineage kinase domain-like protein. Put plainly: PROTAC activity at CRBN/MLKL in human HT29 cells assessed as remaining protein level in cell lysates incubated for 72 hrs measured by capillary immunoassay. Type of data set: subcellular. As to conditions: HT-29.
Target sequence in this assay (Q96SW2 whole entry, looked up, one chain of several, the tested form may be a part): as above
Data set [4] shares this target. The experiment in a line: PROTAC activity at CRBN/MLKL in human HT-29 cells assessed as degraded protein level in cell lysates at 10 uM incubated for 24 hrs measured by capillary immunoassay relative to vehicle treated control. It is filed as subcellular.
Target sequence in this assay (Q96SW2 whole entry, looked up, one chain of several, the tested form may be a part): as above
In data set [5] the target is Protein cereblon/Receptor-interacting serine/threonine-protein kinase 1 (Homo sapiens) (UniProt Q13546+Q96SW2). Put plainly: PROTAC activity at CRBN/RIPK1 in human HT29 cells assessed as remaining protein level in cell lysates at 10 uM incubated for 24 hrs measured by capillary immunoassay relative to vehicle treated control. As to conditions: HT-29. It is filed as subcellular.
Protein cereblon/Receptor-interacting serine/threonine-protein kinase 1 (Homo sapiens), sequence (Q96SW2 whole entry, looked up, one chain of several): as the sequence (Q96SW2 whole entry, looked up, one chain of several, the tested form may be a part) above

Data set [6] deals with T2, Receptor-interacting serine/threonine-protein kinase 1 (Homo sapiens) (UniProt Q13546).
T2 sequence (whole entry): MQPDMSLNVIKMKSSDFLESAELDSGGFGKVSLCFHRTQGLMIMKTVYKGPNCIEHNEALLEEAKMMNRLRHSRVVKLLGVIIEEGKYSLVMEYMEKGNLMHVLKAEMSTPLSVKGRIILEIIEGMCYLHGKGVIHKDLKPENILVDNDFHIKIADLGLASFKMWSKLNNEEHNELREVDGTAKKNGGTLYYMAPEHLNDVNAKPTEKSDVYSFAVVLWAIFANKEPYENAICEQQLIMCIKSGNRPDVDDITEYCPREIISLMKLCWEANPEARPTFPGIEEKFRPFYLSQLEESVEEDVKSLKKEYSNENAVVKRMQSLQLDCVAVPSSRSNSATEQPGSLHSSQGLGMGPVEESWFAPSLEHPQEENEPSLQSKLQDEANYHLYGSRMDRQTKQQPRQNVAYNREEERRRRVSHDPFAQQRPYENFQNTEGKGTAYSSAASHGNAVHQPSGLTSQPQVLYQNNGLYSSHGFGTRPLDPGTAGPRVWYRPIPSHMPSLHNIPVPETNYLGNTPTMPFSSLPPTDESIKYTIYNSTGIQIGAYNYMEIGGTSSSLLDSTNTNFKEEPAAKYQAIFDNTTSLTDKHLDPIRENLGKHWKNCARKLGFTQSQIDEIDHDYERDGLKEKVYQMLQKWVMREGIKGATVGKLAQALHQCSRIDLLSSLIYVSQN
The experiment in a line: Binding affinity to wild type human RIPK1 (M1/K305) expressed in bacterial expression system measured upto 10 uM by Eurofins-DiscoverX KINOMEscanTM KdELECT assay.

Data set [7] addresses Receptor-interacting serine/threonine-protein kinase 3 (Homo sapiens) (UniProt Q9Y572). Put plainly: Binding affinity to wild type human RIPK3 (M1/Q307) expressed in bacterial expression system measured upto 10 uM by Eurofins-DiscoverX KINOMEscanTM KdELECT assay.
The target in data set [8] is T1, Protein cereblon/Mixed lineage kinase domain-like protein. Put plainly: PROTAC activity at CRBN/MLKL in human MKN74 cells assessed as remaining protein level in cell lysates at 0.1 to 10 uM incubated for 24 hrs measured by capillary immunoassay. The following applies: dose 0.1-10 µM. It is filed as subcellular.
Target sequence in this assay (Q96SW2 whole entry, looked up, one chain of several, the tested form may be a part): as the sequence (Q96SW2 whole entry, looked up, one chain of several, the tested form may be a part) above
For data set [9] the target is unchanged. The experiment in a line: PROTAC activity at CRBN/MLKL in human HT29 cells assessed as remaining protein level in cell lysates at 10 uM incubated upto 5 hrs measured by capillary immunoassay relative to vehicle treated control. As to conditions: HT-29. Type of data set: subcellular.
Target sequence in this assay (Q96SW2 whole entry, looked up, one chain of several, the tested form may be a part): as the sequence (Q96SW2 whole entry, looked up, one chain of several, the tested form may be a part) above
Data set [10] shares this target. Put plainly: PROTAC activity at CRBN/MLKL in human HT29 cells assessed as remaining protein level in cell lysates at 10 uM incubated upto 8 hrs measured by capillary immunoassay relative to vehicle treated control. It is filed as subcellular. As to conditions: HT-29.
Target sequence in this assay (Q96SW2 whole entry, looked up, one chain of several, the tested form may be a part): as the sequence (Q96SW2 whole entry, looked up, one chain of several, the tested form may be a part) above
The target in data set [11] is Protein cereblon/Mixed lineage kinase domain-like protein (Mus musculus) (UniProt Q8C7D2+Q9D2Y4). Put plainly: PROTAC activity at CRBN/MLKL in mouse NIH-3T3 cells assessed as remaining protein level in cell lysates at 0.1 to 10 uM incubated for 24 hrs measured by capillary immunoassay. Type of data set: subcellular. The following applies: dose 0.1-10 µM.
Protein cereblon/Mixed lineage kinase domain-like protein (Mus musculus), sequence (Q8C7D2 whole entry, looked up, the tested form may be a part): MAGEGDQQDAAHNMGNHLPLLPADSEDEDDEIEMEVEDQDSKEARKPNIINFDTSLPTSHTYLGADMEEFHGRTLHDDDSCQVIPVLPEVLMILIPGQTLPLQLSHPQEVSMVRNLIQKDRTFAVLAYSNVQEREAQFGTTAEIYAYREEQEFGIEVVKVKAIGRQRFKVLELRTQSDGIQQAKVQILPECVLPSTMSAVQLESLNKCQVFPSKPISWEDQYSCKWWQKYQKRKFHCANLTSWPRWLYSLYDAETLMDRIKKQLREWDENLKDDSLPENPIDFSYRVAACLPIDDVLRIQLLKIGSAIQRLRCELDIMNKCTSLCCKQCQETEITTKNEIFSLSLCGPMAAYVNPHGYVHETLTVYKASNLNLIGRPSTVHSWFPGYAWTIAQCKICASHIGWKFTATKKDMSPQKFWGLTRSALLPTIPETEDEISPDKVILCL
Protein cereblon/Mixed lineage kinase domain-like protein (Mus musculus), sequence (Q9D2Y4 whole entry, looked up, the tested form may be a part): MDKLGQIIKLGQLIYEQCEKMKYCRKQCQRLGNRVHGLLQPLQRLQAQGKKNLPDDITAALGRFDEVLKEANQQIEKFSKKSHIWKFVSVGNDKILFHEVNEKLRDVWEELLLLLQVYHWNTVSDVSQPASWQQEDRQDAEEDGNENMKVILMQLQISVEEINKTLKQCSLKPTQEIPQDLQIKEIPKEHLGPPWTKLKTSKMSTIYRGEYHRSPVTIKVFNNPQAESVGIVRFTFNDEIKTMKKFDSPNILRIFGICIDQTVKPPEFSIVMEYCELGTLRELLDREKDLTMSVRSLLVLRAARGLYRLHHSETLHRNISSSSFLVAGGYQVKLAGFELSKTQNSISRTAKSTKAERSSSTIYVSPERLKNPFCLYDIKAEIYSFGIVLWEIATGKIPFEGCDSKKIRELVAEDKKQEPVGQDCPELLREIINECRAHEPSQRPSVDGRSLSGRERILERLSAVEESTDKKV
The target of data set [12] is T1, Protein cereblon/Mixed lineage kinase domain-like protein. Put plainly: PROTAC activity at CRBN/MLKL in TSZ-induced human HT29 cells assessed as remaining protein level in cell lysates preincubated with MG-132 for 30 mins followed by treated at 10 uM for 8 hrs measured by capillary immunoassay. As to conditions: HT-29. Type of data set: subcellular.
The target is the same in data set [13]. Put plainly: PROTAC activity at CRBN/MLKL in human HEK-a cells assessed as remaining protein level in cell lysates at 0.1 to 10 uM incubated for 24 hrs measured by capillary immunoassay. Type of data set: subcellular. As to conditions: dose 0.1-10 µM.
The target is the same in data set [14]. Put plainly: PROTAC activity at CRBN/MLKL in human HT-29 cells assessed as degraded protein level in cell lysates incubated for 24 hrs measured by capillary immunoassay relative to vehicle treated control. Type of data set: subcellular.
The target of data set [15] is T3, Mixed lineage kinase domain-like protein (Homo sapiens) (UniProt Q8NB16).
T3 sequence (whole entry): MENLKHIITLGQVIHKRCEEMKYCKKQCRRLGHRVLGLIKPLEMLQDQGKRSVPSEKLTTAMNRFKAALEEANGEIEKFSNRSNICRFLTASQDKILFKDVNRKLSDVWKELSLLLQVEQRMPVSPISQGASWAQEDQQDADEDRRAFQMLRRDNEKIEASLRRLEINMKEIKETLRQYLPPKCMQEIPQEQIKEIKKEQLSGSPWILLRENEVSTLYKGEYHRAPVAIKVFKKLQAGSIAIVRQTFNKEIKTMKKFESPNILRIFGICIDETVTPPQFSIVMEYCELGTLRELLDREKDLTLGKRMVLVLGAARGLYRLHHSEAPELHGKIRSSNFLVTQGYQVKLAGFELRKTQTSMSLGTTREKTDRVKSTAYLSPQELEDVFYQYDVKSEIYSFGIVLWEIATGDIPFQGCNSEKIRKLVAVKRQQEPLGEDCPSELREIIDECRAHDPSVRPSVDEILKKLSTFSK
The experiment in a line: Induction of MLKL degradation in human HT-29 cells assessed as remaining protein level in cell lysates incubated for 24 hrs measured by capillary immunoassay. It is filed as subcellular.

For data set [16], the system named is HT-29. Put plainly: Cytotoxicity against human HT-29 cells assessed as cell viability at 10 uM incubated for 24 hrs in presence of lenalidomide by CellTiter-Glo assay. Type of data set: toxicity, cell-based. The following applies: ht-29, 24 h. In general terms: Cellular ATP, detected with luciferase, serves as a proxy for viable cell number.
The target of data set [17] is T1, Protein cereblon/Mixed lineage kinase domain-like protein. The experiment in a line: PROTAC activity at CRBN/MLKL in TSZ-induced human HT29 cells assessed as suppression of phosphorylated protein in cell lysates at 10 uM incubated for 8 hrs measured by capillary immunoassay. It is filed as subcellular. The following applies: HT-29.
Data set [18] has the same target. The experiment in a line: PROTAC activity at CRBN/MLKL in human HK-2 cells assessed as remaining protein level in cell lysates at 0.1 to 10 uM incubated for 24 hrs measured by capillary immunoassay. It is filed as subcellular. As to conditions: dose 0.1-10 µM.
Data set [19] relates to HT-29. The experiment in a line: Cytotoxicity against human HT-29 cells assessed as cell viability at 10 uM incubated for 24 hrs in presence of 3-(4-((difluoromethyl)sulfonamido)phenyl)-5-((3-methoxyphenyl)amino)-1H-pyrazole-4-carboxamide by CellTiter-Glo assay. Type of data set: toxicity, cell-based. The following applies: ht-29, 24 h.
Data set [20] has as its target Protein cereblon/Receptor-interacting serine/threonine-protein kinase 2 (Homo sapiens) (UniProt O43353+Q96SW2). The experiment in a line: PROTAC activity at CRBN/RIPK2 in human HT29 cells assessed as remaining protein level in cell lysates at 10 uM incubated for 24 hrs measured by capillary immunoassay relative to vehicle treated control. Type of data set: subcellular. The following applies: HT-29.

Protein cereblon/Receptor-interacting serine/threonine-protein kinase 2 (Homo sapiens), sequence (O43353 whole entry, looked up): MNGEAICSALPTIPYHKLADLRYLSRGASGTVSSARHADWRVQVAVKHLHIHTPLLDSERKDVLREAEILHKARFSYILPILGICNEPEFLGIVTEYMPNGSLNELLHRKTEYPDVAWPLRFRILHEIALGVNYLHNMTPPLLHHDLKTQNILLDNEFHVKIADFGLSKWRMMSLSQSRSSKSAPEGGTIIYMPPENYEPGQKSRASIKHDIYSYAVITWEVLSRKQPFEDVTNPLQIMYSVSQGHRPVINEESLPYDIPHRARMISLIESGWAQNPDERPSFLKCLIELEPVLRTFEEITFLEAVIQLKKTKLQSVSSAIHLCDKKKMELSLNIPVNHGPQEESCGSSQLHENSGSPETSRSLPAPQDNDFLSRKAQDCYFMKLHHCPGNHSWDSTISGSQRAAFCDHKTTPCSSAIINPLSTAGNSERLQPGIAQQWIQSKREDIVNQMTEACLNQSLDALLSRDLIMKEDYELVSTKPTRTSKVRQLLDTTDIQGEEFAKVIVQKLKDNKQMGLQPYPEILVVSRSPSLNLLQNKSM
Protein cereblon/Receptor-interacting serine/threonine-protein kinase 2 (Homo sapiens), sequence (Q96SW2 whole entry, looked up): as the sequence (Q96SW2 whole entry, looked up, one chain of several, the tested form may be a part) above
Receptor-interacting serine/threonine-protein kinase 3 (Homo sapiens), sequence (Q9Y572 whole entry, looked up, the tested form may be a part): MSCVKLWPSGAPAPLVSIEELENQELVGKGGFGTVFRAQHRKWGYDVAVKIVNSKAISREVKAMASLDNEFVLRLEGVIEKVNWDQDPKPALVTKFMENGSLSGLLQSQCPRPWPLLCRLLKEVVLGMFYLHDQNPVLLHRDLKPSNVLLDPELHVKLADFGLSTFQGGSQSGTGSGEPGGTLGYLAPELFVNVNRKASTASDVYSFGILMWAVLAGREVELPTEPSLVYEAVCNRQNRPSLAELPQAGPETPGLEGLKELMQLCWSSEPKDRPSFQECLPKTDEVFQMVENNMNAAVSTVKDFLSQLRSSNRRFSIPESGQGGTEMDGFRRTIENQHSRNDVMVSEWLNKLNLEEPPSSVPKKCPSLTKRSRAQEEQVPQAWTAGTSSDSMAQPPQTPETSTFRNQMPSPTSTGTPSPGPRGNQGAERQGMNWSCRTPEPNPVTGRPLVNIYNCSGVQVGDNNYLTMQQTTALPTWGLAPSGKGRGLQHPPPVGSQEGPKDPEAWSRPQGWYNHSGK

Take `COc1ccc(C(=O)N2CCC3(CCN(C(=O)CCCCCCCOc4cccc(Nc5[nH]nc(-c6ccc(NS(=O)(=O)C(F)F)cc6)c5C(N)=O)c4)CC3)CC2)cc1N1CCC(=O)NC1=O`: the result in data set [1], in data set [3], in data set [8], in data set [10], in data set [11] and in data set [13] was Active. In addition, the outcome in data set [17] and in data set [18] was Active. Besides, the figures for the EC50 (in the data set with HT-29 [2]; in [14]) were 1.2 µM and 2.4 µM, respectively. The Activity is over 90% in data set [4]; under 10% in [9]; “Dose-Dependent Effect” in [14] (dose 0.1-10 µM); “Non-Toxic” with HT-29 [16]; “Non-Toxic” with HT-29 [19]. Also, the outcome in [5], in data set [6], in data set [7], in data set [12], in data set [15] and in data set [20] was inactive.
